Values after ≈ are worked out from the molar mass of the structure shown. Values joined by “and” are separate entries in the source; they are usually repeats but may differ in a detail not shown here. Equal values may be shown once. Read-outs that look alike come from different tables or passages of the source. Square brackets hold non-standard residues; d marks the D form. Peptide text beside a SMILES is read from it. * marks the point of attachment. dPhe(4-Cl) = N[C@H](Cc1ccc(Cl)cc1)C(=O)O; d2Nal = N[C@H](Cc1ccc2ccccc2c1)C(=O)O; Lys(iPr) = CC(C)NCCCC[C@H](N)C(=O)O; d3Pal = N[C@H](Cc1cccnc1)C(=O)O; Nicotinoyl = O=C(c1cccnc1)*
Columns and labels:
[1] = Solubilisation studies (visual appearance and RP-HPLC solubility after equilibration overnight at 25°C); assay type: physicochemical
Protocol: (§1) RP-HPLC gradient elution, C-18 (e.g. Vydac 218 TP54, 250 x 4.6 mm) column. UV detection at 215 nm, injection volume 15 µl mobile phase A: pH 4.5 phosphate buffer (0.1M), mobile phase B: acetonitrile, flow rate = 1.0 ml/min, runtime = 23 min. External standard solution concentrations of 100 µg/ml were injected during analysis. The gradient was: 77% A, 23% B to 52% A, 48% B […].
Solubilisation studies were carried out to study the effect of: • pH (solutions were acidified with either acetic acid or hydrochloric acid) • hydrotropic agents (nicotinamide, sodium saccharin, sodium salicylate, sodium benzoate, histidine hydrochloride, thiamine hydrochloride, phenylalanine).
Saline used in these studies corresponds to 0.9% sodium chloride solution.
Following the visual analysis, a number of solutions were selected for further quantitative determination of the solubility by filtration (0.45 µm filters) and appropriate dilution using the RP-HPLC method described above.

[2] = Stability of nicotinamide/antide formulations (chemical compatibility); assay type: physicochemical; conditions: pH 5
Protocol: as §1
Four formulations of antide and nicotinamide at different concentration ratios and adjusted to pH 5 were prepared and tested over 3 months at +40°C, +25°C and +4°C.
Chromatographic traces of antide were identical to those of the standard, with the addition of the early eluting nicotinamide peak which appeared at a retention tune of 3.2 minutes.

CC(=O)N[C@H](Cc1ccc2ccccc2c1)C(=O)N[C@H](Cc1ccc(Cl)cc1)C(=O)N[C@H](Cc1cccnc1)C(=O)N[C@@H](CO)C(=O)N[C@@H](CCCCNC(=O)c1cccnc1)C(=O)N[C@H](CCCCNC(=O)c1cccnc1)C(=O)N[C@@H](CC(C)C)C(=O)N[C@@H](CCCCNC(C)C)C(=O)N1CCC[C@H]1C(=O)N[C@H](C)C(N)=O [antide] (Ac-[d2Nal][dPhe(4-Cl)][d3Pal]SK(Nicotinoyl)[dK](Nicotinoyl)L[Lys(iPr)]P[dA]-NH2)
solubility thermodynamic ([1]; 0.9% NaCl solution (saline), saline or isotonic, 0.9% NaCl solution): 0.025 mg/mL (≈ 15.7 µM)
Solubility ([1]; 1% acetic acid in saline, 5 mg/ml antide added, pH 3.12, not quantified, read-out: drug solubility): < 5 mg/mL
solubility thermodynamic ([1]; WFI (water for injection), pH 4.4, water, WFI, nominal amount added 10 mg/ml, pH 4.40): 8.13 mg/mL (≈ 5110 µM)
Solubility ([1]; WFI (water for injection), water, WFI, nominal amount added 1 mg/ml, pH 5.00, read-out: Solubility): ≥ 1 mg/mL
Solubility ([1]; WFI, nominal amount added 10 mg/ml, pH 4.40): 8.1 mg/mL (≈ 5090 µM)
solubility thermodynamic ([1]; phosphate buffered saline, aqueous buffer): 0.016 mg/mL (≈ 10.1 µM)
Solubility ([1]; saline + 15% nicotinamide, nominal amount added 5 mg/ml, pH 5.79 (Table 9)): 3.3 mg/mL and 3.32 mg/mL
Solubility ([1]; saline + 15% sodium benzoate, nominal amount added 5 mg/ml, pH 6.69): 0.072 mg/mL
Solubility ([1]; saline + 15% sodium salicylate, nominal amount added 5 mg/ml, pH 5.81): 0.21 mg/mL
Solubility ([1]; saline + 15% thiamine hydrochloride, nominal amount added 5 mg/ml, pH 3.30): 3.0 mg/mL and 3.01 mg/mL
Solubility ([1]; saline + histidine hydrochloride (5%), nominal amount added 5 mg/ml, pH 4.17): 0.076 mg/mL
Solubility ([1]; saline + nicotinamide 10%, nominal amount added 5 mg/ml, pH 5.68): 1.40 mg/mL
Solubility ([1]; saline + nicotinamide 15%, nominal amount added 5 mg/ml, pH 5.76 (Table 10)): 3.23 mg/mL
Solubility ([1]; saline + nicotinamide 20%, nominal amount added 10 mg/ml, pH 5.64): 8.5 mg/mL and 8.49 mg/mL
Solubility ([1]; saline + phenylalanine (1.7%), nominal amount added 5 mg/ml, pH 4.59): 0.066 mg/mL
solubility thermodynamic ([1]; saline acidified with acetic acid, pH 3.01, saline or isotonic, nominal amount added 10 mg/ml, pH 3.01): 2.2 mg/mL (≈ 1380 µM)
Solubility ([1]; saline acidified with acetic acid, nominal amount added 10 mg/ml, pH 3.01): 2.23 mg/mL (≈ 1400 µM)
solubility thermodynamic ([1]; saline, pH 5.04, saline or isotonic, nominal amount added 1 mg/ml, natural pH 5.04): 0.025 mg/mL (≈ 15.7 µM)
Stability of nicotinamide/antide formulations ([2]; antide 1 mg/ml, nicotinamide 5%, +4°C, 4W): 0.9
Stability of nicotinamide/antide formulations ([2]; antide 1 mg/ml, nicotinamide 5%, +4°C, 12W): 1.0
Stability of nicotinamide/antide formulations ([2]; antide 1 mg/ml, nicotinamide 5%, +25°C, 1W): 0.9
Stability of nicotinamide/antide formulations ([2]; antide 1 mg/ml, nicotinamide 5%, +25°C, 4W): 0.9
Stability of nicotinamide/antide formulations ([2]; antide 1 mg/ml, nicotinamide 5%, +25°C, 12W): 1.0
Stability of nicotinamide/antide formulations ([2]; antide 1 mg/ml, nicotinamide 5%, +40°C, 1W): 1.0
Stability of nicotinamide/antide formulations ([2]; antide 1 mg/ml, nicotinamide 5%, +40°C, 4W): 0.9
Stability of nicotinamide/antide formulations ([2]; antide 1 mg/ml, nicotinamide 5%, +40°C, 12W): 1.0
Stability of nicotinamide/antide formulations ([2]; antide 1 mg/ml, nicotinamide 5%, T=0): 1.0
Stability of nicotinamide/antide formulations ([2]; antide 1 mg/ml, nicotinamide 25%, +4°C, 4W): 1.0
Stability of nicotinamide/antide formulations ([2]; antide 1 mg/ml, nicotinamide 25%, +4°C, 12W): 1.1
Stability of nicotinamide/antide formulations ([2]; antide 1 mg/ml, nicotinamide 25%, +25°C, 1W): 1.0
Stability of nicotinamide/antide formulations ([2]; antide 1 mg/ml, nicotinamide 25%, +25°C, 4W): 1.0
Stability of nicotinamide/antide formulations ([2]; antide 1 mg/ml, nicotinamide 25%, +25°C, 12W): 1.1
Stability of nicotinamide/antide formulations ([2]; antide 1 mg/ml, nicotinamide 25%, +40°C, 1W): 1.0
Stability of nicotinamide/antide formulations ([2]; antide 1 mg/ml, nicotinamide 25%, +40°C, 4W): 1.0
Stability of nicotinamide/antide formulations ([2]; antide 1 mg/ml, nicotinamide 25%, +40°C, 12W): 1.1
Stability of nicotinamide/antide formulations ([2]; antide 1 mg/ml, nicotinamide 25%, T=0): 1.0
Stability of nicotinamide/antide formulations ([2]; antide 10 mg/ml, nicotinamide 5%, +4°C, 1W): 10.3
Stability of nicotinamide/antide formulations ([2]; antide 10 mg/ml, nicotinamide 5%, +4°C, 4W): 10.0
Stability of nicotinamide/antide formulations ([2]; antide 10 mg/ml, nicotinamide 5%, +4°C, 12W): 10.5
Stability of nicotinamide/antide formulations ([2]; antide 10 mg/ml, nicotinamide 5%, +25°C, 1W): increased viscosity with precipitate formation and gel
Stability of nicotinamide/antide formulations ([2]; antide 10 mg/ml, nicotinamide 5%, +25°C, 4W): gel
Stability of nicotinamide/antide formulations ([2]; antide 10 mg/ml, nicotinamide 5%, +25°C, 12W): gel
Stability of nicotinamide/antide formulations ([2]; antide 10 mg/ml, nicotinamide 5%, +40°C, 1W): increased viscosity with precipitate formation and gel
Stability of nicotinamide/antide formulations ([2]; antide 10 mg/ml, nicotinamide 5%, +40°C, 4W): gel
Stability of nicotinamide/antide formulations ([2]; antide 10 mg/ml, nicotinamide 5%, +40°C, 12W): gel
Stability of nicotinamide/antide formulations ([2]; antide 10 mg/ml, nicotinamide 5%, T=0): 9.7
Stability of nicotinamide/antide formulations ([2]; antide 10 mg/ml, nicotinamide 25%, +4°C, 4W): 10.1
Stability of nicotinamide/antide formulations ([2]; antide 10 mg/ml, nicotinamide 25%, +25°C, 1W): 9.8
Stability of nicotinamide/antide formulations ([2]; antide 10 mg/ml, nicotinamide 25%, +25°C, 4W): 9.5
Stability of nicotinamide/antide formulations ([2]; antide 10 mg/ml, nicotinamide 25%, +25°C, 12W): 11.1
Stability of nicotinamide/antide formulations ([2]; antide 10 mg/ml, nicotinamide 25%, +40°C, 1W): 10.7
Stability of nicotinamide/antide formulations ([2]; antide 10 mg/ml, nicotinamide 25%, +40°C, 4W): 9.4
Stability of nicotinamide/antide formulations ([2]; antide 10 mg/ml, nicotinamide 25%, +40°C, 12W): 10.2
Stability of nicotinamide/antide formulations ([2]; antide 10 mg/ml, nicotinamide 25%, T=0): 9.8
